In patent publication EP3351262A1, “CURAGLUTIDE FOR IN TREATMENT OF PREDIABETES, DIABETES, OBESITY AND METABOLIC DISEASES ASSOCIATED THERETO” (Istanbul Universitesi Rektorlugu, priority 2016, dated 2018):
Several values for one entry are separate records, joined by “and”; a condition that tells them apart may be missing. Equal entries are not always repeated.

Tests used:
active caspase-3 = assay: Western blotting of apoptotic protein active caspase-3 in cell lysates; type: cell-based, rat; settings: for amount of active caspase-3: control 1.07±0.01; for active caspase-3 amounts: INS-1 cells, normalized to β-actin
Description: Trypsin is applied to 75 cm^2 flask containing INS-1 […] beta cells and it is centrifuged in 1500 rpm for 15 minutes. According to the density of pellet formed after centrifuge, it is centrifuged at 4 °C in 1500 rpm for 5 minutes by providing the washing with pipetting with PBS and transferring into 2 ml eppendorf. The supernatant was removed, lysis buffer was added according to the density of pellet and pipetting is performed carefully. It was left for 30 minutes on the ice by vortexing in every 10 minutes. Then the cells were allowed to lysis by ultrasonication for 10 seconds for 5 times, keeping on ice for 10 seconds and they were centrifuged at 4 °C in 13000 rpm for 10 minutes. The supernatant occurred was taken to 0,2 ml eppendorf tubes, and they were taken to -86 °C temperature. These operations were repeated for 3 times for each of the control and experiment groups.
Bradford method was used in order to determine the protein content. First, a standard curve was formed by using BSA (bovine serum albumin) having a concentration of 1.46 mg/ml. This curve was prepared as following: Bradford solution was added into 80 µg/ml, 40 µg/ml, 20 µg/ml, 10 µg/ml BSA, their absorbance was measured in 595 nm, it was diluted in a way that the lysates are 1/100 and 160 µl was taken, their absorbance in the same wavelengths was determined. After absorbance/concentration graph of the standards was obtained, the concentrations of the samples whose concentrations are […] were determined by using the slope equation of this graph.
Protein bands separated by electrophoresis in gel were transferred from the gel into nitrocellulose membrane. After membrane transferring operation, transfer efficiency was controlled for 15 minutes by using Ponceau S painting solution.
The membrane wherein the proteins were transferred, was incubated at room temperature for 1 hour with blocking solution prepared with skimmed milk powder. The membranes were incubated with primary antibodies suitable diluting ratios (Table 1) for 1 night at +4 °C, following the blocking operation. Following this operation, washed membranes were treated with peroxidase marked goat anti-rabbit secondary IgGs (Santa Cruz, CA, USA, sc-2004) at room temperature for 1 hour. Following the treatment with secondary antibodies of membranes, they were washed with washing solution and shaken with pure water. Then, the specific protein bands were monitored by KodakGL1500 gel monitoring system, by chemiluminescence method using Western Blotting Luminol Reagent (Santa Cruz, CA, USA, sc-2048) chemiluminescence substrate. Their densitometric analysis were performed by "Kodak Molecular Imaging Systems" software. The statistical analysis between the bands were performed by normalizing the band densities of the protein samples whose densitometric analysis were performed, to the density of β-actin protein. Table 1: The primary antibodies used in Western blotting method, the dilution ratios and periods thereof
In order to determine the apoptosis dose, p 53, cytochrome-c and active caspase-3 protein amounts were determined by western blotting method by obtaining lysate from the cells in which 0.75, 1,1.75,2,2.5 and 3 mM palmitic acid were applied. The graph obtained from western blotting bands and the calculation performed as a result of the analysis of these bands is shown in Figure 3.
The amount of intracellular proteins such as p53, cytochrome-c and active caspase-3 were observed by western blotting in order to examine the effect of curaglutide on apoptosis stimulated by 2 mM palmitic acid in INS-1 beta cells.

INS-1 cells = assay: Lactate dehydrogenase (LDH) release cytotoxicity test (necrosis); type: cell-based, rat; settings: for % cytotoxicity values: LDH secretion; for cytotoxicity value percentages: 24 h, positive control (lysis) 100%
Description: Lactate dehydrogenase (LDH) release test is based on the measurement of the activity of lactate dehydrogenase which is a cytoplasmic enzyme released from the dead cells or cells with damaged plasma membrane and it is used in cellular cytotoxicity assessment. The cytotoxic effect of palmitic acid on […] pancreatic INS-1 cell strain was determined by LDH activity released from the damaged cells and for this purpose Cytotoxicity Determination Kit, LDH (Roche Molecular Marker) was used.
In LDH test, as well as the experimental groups wherein palmitic acid was applied, negative control group for spontaneous LDH release from the cells and positive control group for LDH release were studied. Since palmitic acid in 0.5, 0.75 and 1 mM doses decreases the cell viability, these doses and the control group of the highest dose were studied. The cells were removed by trypsin-EDTA and centrifuged, after growth in 75 cm^2 flask. The cells were suspended in medium in a way such that there would be 50 000 cells in 100 µl, and 100 µl cell suspension was transferred into plates with 96 wells. 10 wells were studied for each of the control and experiment groups and the experiment was repeated for 3 times. After the incubation for 24 hours, the control groups were washed with PBS, and they were freshened with the medium without sodium pyruvate and beta-mercaptoethanol. The medium of the experiment groups was changed with the medium containing different concentrations of palmitic acid. Following the incubation of the cells with palmitic acid for 24 hours, LDH activity released from the cells was determined according to the instructions of the manufacturer. 5 µl lysis solution (2% Triton-X-100) was added to the wells of positive control group and the plate was incubated at 37 °C for 15 minutes. In order to measure LDH activity, the fresh reaction mixture prepared containing catalyst (Diaphorase+NAD mixture) and paint solution (Iodotetrazolium chloride (INT) and sodium lactate) was added to each of the wells. Following the incubation at room temperature for 30 minutes, the reaction was stopped by adding 50 µl stopping solution (IN HCl) to each of the wells. The plates were shaken in an orbital shaker for 10 seconds and the spectrophotometric absorbance was measured in 490 nm test wavelength and 690 nm reference wavelength. The results were determined as "cytotoxicity %". The average absorbance values of negative control were extracted from control and experiment groups and they were calculated by using the formula below by comparing control and experiment groups according to positive control group, and by assuming that positive control group is 100% cytotoxic: 100% Cytotoxicity = ((Experiment or Control Value)−(Negative Control))/((Positive Control)−(Negative Control)) × 100 [formula]
Lactate dehydrogenase release in INS-1 cells wherein different palmitic acid doses were applied was measured using cytotoxicity kit and the results are shown in Figure 4.
Protective and therapeutic effect of 10 nM curaglutide on necrosis is shown in Figure 10 by the evaluation of LDH secretion at 3 and 4 mM doses in INS-1 beta cells. According to the results, in INS-1 beta cells % cytotoxicity values are 48.2±2 in the group where 3 mM dose (necrotic dose) of palmitic acid was administered, 11.6±2.9 in the group where 10 nM curaglutide was administered as a protective against necrotic dose, 11.6±4.8 in the group where 10 nM curaglutide was supplied as a curative agent in necrotic dose, 81.3±5.9 in the group where 4 mM dose of palmitic acid was administered, […] in the group where curaglutide was administered as a protective against 4 mM palmitic acid, 68.2±7.2 in the group where 10 nM curaglutide was administered as therapeutic at 4 mM dose of palmitic acid. As compared to the control group, statistically meaningful results were obtained in both doses in terms of protective effect (p<0,0001). […]

SMILES	amount of active caspase-3 (active caspase-3; 10 nM curaglutide as curative agent, 2 mM palmitic acid (apoptotic dose))	amount of active caspase-3 (active caspase-3; 10 nM curaglutide as protector against 2 mM palmitic acid (apoptotic dose))	% cytotoxicity values (INS-1 cells; 10 nM curaglutide as curative agent, 3 mM palmitic acid (necrotic dose)) [%]	% cytotoxicity values (INS-1 cells; 10 nM curaglutide as protective against 3 mM palmitic acid (necrotic dose)) [%]	% cytotoxicity values (INS-1 cells; 10 nM curaglutide as therapeutic at 4 mM palmitic acid) [%]	% cytotoxicity values (INS-1 cells; curaglutide as protective against 4 mM palmitic acid) [%]	active caspase-3 amounts (active caspase-3; 0.75 mM palmitic acid, control 1.08±0.00)	active caspase-3 amounts (active caspase-3; 1 mM palmitic acid, control 1.08±0.00)	active caspase-3 amounts (active caspase-3; 1.75 mM palmitic acid, control 1.08±0.00)	active caspase-3 amounts (active caspase-3; 2 mM palmitic acid (apoptotic dose), control 1.08±0.00 / 1.07±0.01)	active caspase-3 amounts (active caspase-3; 2.5 mM palmitic acid, control 1.08±0.00)	active caspase-3 amounts (active caspase-3; 3 mM palmitic acid, control 1.08±0.00)	cytotoxicity value percentages (INS-1 cells; 1 mM palmitic acid) [%]	cytotoxicity value percentages (INS-1 cells; 2 mM palmitic acid) [%]	cytotoxicity value percentages (INS-1 cells; 3 mM palmitic acid (necrotic dose)) [%]	cytotoxicity value percentages (INS-1 cells; 4 mM palmitic acid) [%]
CC[C@H](C)[C@H](NC(=O)[C@H](Cc1ccccc1)NC(=O)[C@H](CCC(=O)O)NC(=O)[C@H](CCCCN)NC(=O)[C@H](C)NC(=O)[C@H](C)NC(=O)[C@H](CCC(N)=O)NC(=O)CNC(=O)[C@H](CCC(=O)O)NC(=O)[C@H](CC(C)C)NC(=O)[C@H](Cc1ccc(O)cc1)NC(=O)[C@H](CO)NC(=O)[C@H](CO)NC(=O)[C@@H](NC(=O)[C@H](CC(=O)O)NC(=O)[C@H](CO)NC(=O)[C@@H](NC(=O)[C@H](Cc1ccccc1)NC(=O)[C@@H](NC(=O)CNC(=O)[C@H](CCC(=O)O)NC(=O)[C@H](C)NC(=O)[C@H](Cc1c[nH]cn1)NC(C)=O)[C@@H](C)O)[C@@H](C)O)C(C)C)C(=O)N[C@@H](C)C(=O)N[C@@H](Cc1c[nH]c2ccccc12)C(=O)N[C@@H](CC(C)C)C(=O)N[C@H](C(=O)N[C@@H](CCCCN)C(N)=O)C(C)C [curaglutide]	0.54±0.00	0.67±0.00	11.6±4.8	11.6±2.9	68.2±7.2	45.8±6.8	–	–	–	–	–	–	–	–	–	–
CCCCCCCCCCCCCCCC(=O)O [palmitic acid]	–	–	–	–	–	–	1.03±0.03	1.03±0.00	1.02±0.05	1.26±0.00 and 1.22±0.00	1.15±0.03	1.06±0.00	1±0	13.5±2.4	48.2±2	81.3±5.9
